These results are taken from patent publication US8507493B2 (AbbVie Inc., priority 2009, dated 2013).

One test has as its target T1, human 11β-HSD1 (Homo sapiens, UniProt P28845).
T1 construct: truncated (24-287aa) human 11β-HSD1 enzyme; made in house; host or cells: E. coli (lysate, not purified)
As to the kind of experiment: Human 11β-HSD1 enzymatic SPA assay. Format: biochemical. The conditions noted are these: truncated (24-287aa) human 11β-HSD1, apparent Ki from IC50 by Cheng-Prusoff. How it is done: The ability of test compounds to inhibit human 11β-HSD1 enzymatic activity in vitro was evaluated in a Scintillation Proximity Assay (SPA). Tritiated-cortisone substrate, NADPH cofactor and titrated compound were incubated with truncated (24-287aa) human 11β-HSD1 enzyme at room temperature to allow the conversion to cortisol to occur. The reaction was stopped by adding a non-specific 11β-HSD inhibitor, glycyrrhetinic acid. The tritiated cortisol was captured by a mixture of an anti-cortisol monoclonal antibody and SPA beads coated with anti-mouse antibodies. The reaction plate was shaken at room temperature and the radiolabel bound to SPA beads was then measured on a scintillation counter. The 11β-HSD1 assay was carried out in 96-well microtiter plates in a total volume of […]. To start the assay, 188 μL of master mix which contained 75 nM ^3H-cortisone, 100 nM cortisone and 181 μM NADPH was added to the wells. In order to drive the reaction in the 11β-reductase direction, 1 mM glucose-6-phosphate (G-6-P) and 1 U/mL G-6-P dehydrogenase were also added as a NADPH generating system. Solid compound was dissolved in dimethyl sulfoxide to make a 10 mM stock followed by a subsequent 10-fold serial dilution with dimethyl sulfoxide. Each compound solution in dimethyl sulfoxide was 10-fold diluted in Tris/EDTA buffer (pH 7.4). 22 μL of titrated compound were then added in duplicate to the substrate. Reactions were initiated by the addition of 10 μL of 0.1 mg/mL E. coli lysates overexpressing 11β-HSD1 enzyme. After shaking and incubating plates for 30 minutes at room temperature, reactions were stopped by adding 10 μL of 1 mM glycyrrhetinic acid. The product, tritiated cortisol, was captured by adding 10 μL of 1 μM monoclonal mouse anti-cortisol antibodies and 50 μL of SPA beads coated with anti-mouse antibodies. After shaking for 30 minutes, plates were read in a Microbeta scintillation counter. Percent inhibition was calculated based on the background and the maximal signal. Wells that contained substrate without compound or enzyme were used as the background, while the wells that contained substrate and enzyme without any compound were considered as maximal signal. Percent of inhibition of each compound was calculated relative to the maximal signal and IC50 curves were generated. Assuming competitive inhibition the Cheng-Prusoff equation was used to calculate apparent Ki values from the IC50 values. This assay was applied to 11β-HSD2 as well, whereby 6 nM tritiated cortisol and 250 uM NAD^+ were used as substrate and cofactor, respectively.

In a further test the test system is patients. Particulars: cited from earlier work.

Where two headings read alike, the source gives them in different places.

T1 sequence (P28845 24-287): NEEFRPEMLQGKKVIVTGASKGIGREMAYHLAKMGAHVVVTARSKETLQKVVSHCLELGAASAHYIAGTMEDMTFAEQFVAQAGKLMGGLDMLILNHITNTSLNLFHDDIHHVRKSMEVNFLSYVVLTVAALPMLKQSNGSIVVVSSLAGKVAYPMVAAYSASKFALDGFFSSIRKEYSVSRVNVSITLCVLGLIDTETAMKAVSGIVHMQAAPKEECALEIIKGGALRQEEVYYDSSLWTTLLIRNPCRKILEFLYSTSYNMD

For the molecule `Cc1c(Cl)cccc1S(=O)(=O)N1CCC[C@H](C(=NC#N)NC2CCCCC2)C1` [Example 35, (3S)-1-[(3-Chloro-2-methylphenyl)sulfonyl]-N′-cyano-N-cyclohexylpiperidine-3-carboximidamide], the Ki at human 11β-HSD1 is over 1000 nM. Still for that read-out and setting: in the case of `CC(C)(OCc1ccc(C(F)(F)F)cc1)C(=NC#N)NC1C2CC3CC1CC(C(=O)O)(C3)C2` (centres unmarked) [Example 24, (E)-4-[((1E)-N-Cyano-2-methyl-2-{[4-(trifluoromethyl)benzyl]oxy}propanimidoyl)amino]adamantane-1-carboxylic acid] it was 10 to 100 nM; in that of “(1E)-N-(adamantan-1-yl)-N-cyano-2-(2,4-difluorophenoxy)-2-methylpropanimidamide [Example 71]”, 10 to 100 nM. Still for that read-out and setting: the same measure for `CC(C)(Oc1ccccc1)/C(=N\C#N)N[C@@H]1[C@@H]2C[C@@H]3C[C@H]1C[C@@](C(N)=O)(C3)C2` [Example 50, (E)-4-{[(1E)-N-cyano-2-methyl-2-phenoxypropanimidoyl]amino}adamantane-1-carboxamide]: at most 10 nM; for `CC(C)(Oc1ccccc1F)C(=NC#N)NC1C2CC3CC1CC(O)(C3)C2` (centres unmarked) [Example 80, (1E)-N′-cyano-2-(2-fluorophenoxy)-N-[(E)-5-hydroxyadamantan-2-yl]-2-methylpropanimidamide]: at most 10 nM. As to `CC(C)(Oc1ccc(Cl)cc1F)C(=NC#N)NC1CCCCCCC1` [Example 61, 2-(4-chloro-2-fluorophenoxy)-N′-cyano-N-cyclooctyl-2-methylpropanimidamide], the Ki at human 11β-HSD1 is 100 to 1000 nM. In the case of `CC1(C)[C@@H](OC(=O)CCC(=O)O)CC[C@]2(C)[C@H]3C(=O)C=C4[C@@H]5C[C@@](C)(C(=O)O)CC[C@]5(C)CC[C@@]4(C)[C@]3(C)CC[C@@H]12` [carbenoxolone], the figures for the lowered intraocular pressure with patients (treatment for 4 days) and with patients (treatment for 7 days) were 10% and 17%, respectively.

Regarding `CC1(C)/C(=N/C#N)N([C@@H]2[C@@H]3C[C@@H]4C[C@H]2C[C@@](S(C)(=O)=O)(C4)C3)CC1COc1ccc(C#N)cn1` (some centres unmarked) [Example 33, (2Z)-4-{[(5-Cyanopyridin-2-yl)oxy]methyl}-3,3-dimethyl-1-[(E)-5-(methylsulfonyl)-2-adamantyl]pyrrolidin-2-ylidenecyanamide], the Ki on human 11β-HSD1 lay within 100 to 1000 nM.

On to `CC(C)(Oc1ccc(Cl)cc1)C(=NC#N)NC1CC2CCC1C2` (stereo not drawn) [Example 42, N-[exo-Bicyclo[2.2.1]hept-2-yl]-2-(4-chlorophenoxy)-N′-cyano-2-methylpropanimidamide], for which, on human 11β-HSD1, the Ki lay in the range of 100 to 1000 nM. Regarding `CC(C)(Oc1ccc(Cl)cc1)C(=NC#N)NC1C2CC3CC1CC(S(C)(=O)=O)(C3)C2` (centres unmarked) [Example 19, (1E)-2-(4-Chlorophenoxy)-N-cyano-2-methyl-N-[(E)-5-(methylsulfonyl)-2-adamantyl]propanimidamide], the Ki on human 11β-HSD1 was 10 to 100 nM. Same read-out and setting: in the case of `CC(C)(Oc1ccccc1)C(=NC#N)NC12CCC(C(F)F)(CC1)CC2` [Example 86, N-cyano-N-[4-(difluoromethyl)bicyclo[2.2.2]oct-1-yl]-2-methyl-2-phenoxypropanimidamide] it was 10 to 100 nM; in that of `N#CN=C(NC1C2CC3CC1CC(O)(C3)C2)C1(c2ccc(Cl)cc2)CCC1` (centres unmarked) [Example 3, 1-(4-Chlorophenyl)-N′-cyano-N-[(E)-5-hydroxy-2-adamantyl]cyclobutanecarboximidamide], over 1000 nM. The same measure, in the same setting: the same measure for `N#CN=C(Cc1cccnc1Cl)NC1C2CC3CC1CC(O)(C3)C2` (centres unmarked) [Example 6, (1E)-2-(2-Chloropyridin-3-yl)-N′-cyano-N-[(E)-5-hydroxy-2-adamantyl]ethanimidamide]: over 1000 nM; for `CC(C)(Oc1ccc(Cl)cc1F)C(=NC#N)NC12CC3CC(CC(C3)C1)C2` [Example 60]: 10 to 100 nM; for `COC(=O)C12CC3CC(C1)C(NC(=NC#N)C(C)(C)N1CCN(c4ccc(C(F)(F)F)cn4)CC1)C(C3)C2` (centres unmarked) [Example 29, Methyl(E)-4-[((1E)-N-cyano-2-methyl-2-{4-[5-(trifluoromethyl)pyridin-2-yl]piperazin-1-yl}propanimidoyl)amino]adamantane-1-carboxylate]: 100 to 1000 nM.

Turning to `COC(=O)C12CC3CC(C1)C(NC(=NC#N)C(C)(C)OCc1ccc(C(F)(F)F)cc1)C(C3)C2` (centres unmarked) [Example 17, Methyl(E)-4-[((1E)-N-cyano-2-methyl-2-{[4-(trifluoromethyl)benzyl]oxy}propanimidoyl)amino]adamantane-1-carboxylate], the Ki at human 11β-HSD1 was in the range of 100 to 1000 nM. For `CC(C)(Oc1ccc(F)cc1F)/C(=N\C#N)N[C@@H]1[C@@H]2C[C@@H]3C[C@H]1C[C@@](S(N)(=O)=O)(C3)C2` [Example 57], at human 11β-HSD1, the Ki was 10 to 100 nM. `CC(C)(Oc1ccccc1)/C(=N\C#N)NC1C2CC3CC1CC(S(C)(=O)=O)(C3)C2` (centres unmarked) [Example 64, (1E)-N-cyano-2-methyl-N-[(E)-5-(methylsulfonyl)adamantan-2-yl]-2-phenoxypropanimidamide]: the Ki at human 11β-HSD1 is at most 10 nM.

Turning to `CC(C)(Oc1ccccc1F)C(=NC#N)NC1C2CC3CC1CC(S(N)(=O)=O)(C3)C2` (centres unmarked) [Example 79, (1E)-N′-cyano-2-(2-fluorophenoxy)-2-methyl-N-[(E)-5-sulfamoyladamantan-2-yl]propanimidamide], at human 11β-HSD1, the Ki was 10 to 100 nM.

`CC(C)(Oc1ccc(Cl)cc1)C(=NC#N)NC1CN2CCC1CC2` (centres unmarked) [Example 40, N-1-Azabicyclo[2.2.2]oct-3-yl-2-(4-chlorophenoxy)-N′-cyano-2-methylpropanimidamide]: the Ki at human 11β-HSD1 is over 1000 nM. On the same count and under the same terms, in the case of `CC(C)(Cc1ccc(Cl)cc1)C(=N)NC1C2CC3CC1CC(O)(C3)C2` (centres unmarked) [Example 22, 3-(4-Chlorophenyl)-N-[(E)-5-hydroxy-2-adamantyl]-2,2-dimethylpropanimidamide] it was over 1000 nM; in that of `CC(C)(Oc1ccc(Cl)cn1)C(=NC#N)NC1C2CC3CC1CC(C(N)=O)(C3)C2` (centres unmarked) [Example 75, (E)-4-({(1E)-2-[(5-chloropyridin-2-yl)oxy]-N-cyano-2-methylpropanimidoyl}amino)adamantane-1-carboxamide], 10 to 100 nM.
